We go through five compounds from patent US5504091A, “Biotin esters of rapamycin” (American Home Products Corporation, priority 1994, dated 1996).

Assay [1] deals with RAP-42-OVAF2#1MoAb. In words: FPIA competition of the binding between the antibody and A3 tracer. From the text: (§1) The hybridoma cell line in P4G1 was cloned by limiting dilution and is designated as hybridoma cell line, RAP-42-OVAF2 #1hc-. The hybridoma cell line, RAP-42-OVAF2 #1hc, was deposited under the terms of the Budapest Treaty with the American Type Culture Collection (ATCC) of 12301 Parklawn Drive, Rockville, Md., 20852, U.S.A., on Mar. 10, 1994, and was granted accession number HB 11568. […] The ring opened rapamycin-specific antibody, designated as RAP-42-OVAF2 #1MoAb, was isolated and purified using conventional methodology.

For assay [2], the system named is T-cell proliferation (cells from the thymus of normal C3H mice). In words: comitogen-induced thymocyte proliferation procedure (LAF). Format: cell-based. The settings on record: for inhibition at 0.0001 µM / inhibition at 0.001 µM / inhibition at 0.003 µM / inhibition at 0.01 µM / inhibition at 1 µM / IC50: Mus musculus, T-cell; for inhibition at 0.0001 µM: 0.1 nM (so in the source); for inhibition at 0.001 µM: 1 nM; for inhibition at 0.003 µM: 3 nM; for inhibition at 0.01 µM: 10 nM; for ratio compared to rapamycin: >1 = greater inhibition than rapamycin. The protocol:
Immunosuppressive activity for a representative compound of this invention was evaluated in an in vitro standard pharmacological test procedure to measure the inhibition of lymphocyte proliferation (LAF).
The comitogen-induced thymocyte proliferation procedure (LAF) was used as an in vitro measure of the immunosuppressive effects of representative compounds. Briefly, cells from the thymus of normal C3H mice are cultured for 72 hours with PHA and IL-1 and pulsed with tritiated thymidine during the last six hours. Cells are cultured with and without various concentrations of rapamycin, cyclosporin A, or test compound. Cells are harvested and incorporated radioactivity is determined. Inhibition of lymphoproliferation is assessed as percent change in counts per minute from non-drug treated controls. For each compound evaluated, rapamycin was also evaluated for the purpose of comparison. An IC50 was obtained for each test compound as well as for rapamycin. […] The results are also expressed as a ratio compared to rapamycin. A positive ratio indicates immunosuppressive activity. […] Calculation of the ratio is shown below. [formula]

For the next assay, the system named is Streptavidin. The assay is described as follows: BIAcore binding of the compound of Example 3 to streptavidin conjugated matrix. The following applies: 2.5 mM injected. Background: Surface plasmon resonance follows binding to a sensor surface in real time, without labels.
The nature of assay [3]: Fluorescent Polarization Immunoassay (FPIA), tracer background.
Excerpt: as §1

The test system of another assay is FKBP12. The assay is described as follows: Fluorescent Polarization Immunoassay (FPIA), tracer with FKBP12. The class given is binding.
Excerpt: as §1

Assay [4] has as its system RAP-42-OVAF2#1MoAb. The assay is described as follows: Fluorescent Polarization Immunoassay (FPIA), tracer with antibody. Format: binding.
Excerpt: as §1

For assay [5], the system named is rapamycin specific antibody. The assay is described as follows: competitive inhibition ELISA, binding of the compound of Example 3 to rapamycin specific antibody (Table 2). The following applies: for OD: compound of Example 3 0.17 μM, 492 nm. The protocol:
The compound of Example 3 was used as a representative compound of this invention. Microtiter plates (Immulon I) were coated overnight with 100 μl of goat anti-mouse antibody (10 μg/ml in 10 mM potassium phosphate buffer, pH 7.2) at 4° C. The plates were flicked and blocked with 100 μl of 1% bovine sera albumin in phosphate buffered saline overnight at 4° C. After flicking and washing the plates three times with 0.2×PBS containing 0.02% Triton X-100 and 0.004% thimerosal, rapamycin specific antibody (100 μl of 1 μg/ml) was added to each well and incubated at room temperature for 1-4 hour. After flicking and washing the plates three times with 0.2×PBS containing 0.02% Triton X- 100 and 0.004% thimerosal, the compound of Example 3 (100 μl, 0.17 μM) in the presence or absence of various concentrations of rapamycin was added and incubated for 1 hour. After flicking and washing the plates three times with 0.2×PBS containing 0.02% Triton X-100 and 0.004% thimerosal, streptavidin conjugated to horseradish peroxidase (100 μl, 0.2 μg/ml) was incubated at room temperature for 1 hour in the dark. After flicking and washing the plates three times with 0.2×PBS containing 0.02% Triton X-100 and 0.004% thimerosal, OPD substrate was added and the plates were incubated covered for 15 min. at room temperature in the dark. The optical density was read on a spectrophotometer at 492 nm.
(An ELISA detects its analyte on a solid surface through an enzyme-linked reagent.)

The target of assay [6] is glutathione S-transferase-FK506 binding protein (GST-FKBP) (Homo sapiens, UniProt P62942). In words: Rapamycin Competitive Binding Assay using the Compound of Example 3, receptor based (Table 3). The following applies: compound of Example 3 50 ng/ml, 450 nm. The protocol: The following is an example of the use of the compounds of this invention in a receptor based assay to measure rapamycin levels using a rapamycin-binding protein and the compound of Example 3 as the ligand. Wells of microtiter plates were coated with 0.5 μg/well of the fusion protein, glutathione S-transferase-FK506 binding protein (GST-FKBP), in 100 μl of 0.02M HEPES buffer, pH 7.4. Plates were incubated overnight at 4° C. Plates were washed 3 × with HEPES buffer. Well surfaces were blocked by the addition of 1% bovine serum albumin fraction V (BSA) in HEPES buffer ([…]). Plates were incubated for 1 hour at ambient temperature. Plates were washed three times. Various concentrations of rapamycin were added to the compound of Example 3 (50 ng/ml) and 100 μl of the solutions were added to wells in triplicate. After incubation of the plates at ambient temperature followed by washing the plates with HEPES buffer, 100 μl of diluted avidin-horseradish peroxidase conjugate was added to each well. After incubation for 1 hour at ambient temperature and washing five times, 100 μl of tetramethylbenzidine substrate was added to each well. The plates were incubated for 30 minutes in the dark at ambient temperature. The reactions were stopped and the optical density was read at 450 nm.

In assay [7] the test system is experimental allergic encephalomyelitis model. The following applies: model for multiple sclerosis; Martel et al.; cited from earlier work.
The next assay has as its system adjuvant arthritis model. The following applies: model for rheumatoid arthritis; Martel et al.; cited from earlier work.
Another assay concerns IgE-like antibodies. The following applies: Martel et al.; cited from earlier work.

Like-named read-outs stand apart in the source and are kept apart here.

Usually inhibition stands for the relative decrease from the control value, in per cent. One may read the IC50 as the concentration at which inhibition is half-maximal.

Sequence of glutathione S-transferase-FK506 binding protein (GST-FKBP) (P62942 2-108): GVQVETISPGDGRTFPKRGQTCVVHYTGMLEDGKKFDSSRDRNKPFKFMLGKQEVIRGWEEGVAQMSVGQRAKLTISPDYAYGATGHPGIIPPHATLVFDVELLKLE

With `CO[C@@H](C[C@@H]1CC[C@@H](C)[C@](O)(C(=O)C(=O)N2CCCC[C@H]2C(=O)O)O1)/C(C)=C/C=C/C=C/[C@@H](C)C[C@@H](C)C(=O)[C@H](OC)[C@H](O)/C(C)=C/[C@@H](C)C(=O)/C=C/[C@H](C)C[C@@H]1CC[C@@H](O)[C@H](OC)C1` [secorapamycin], the “polarization, competition of the binding between the antibody and A3 tracer” value came to 89 mP with RAP-42-OVAF2#1MoAb [1] (after 38 min) and 105 mP in the assay with RAP-42-OVAF2#1MoAb [1] (at 3 min).

In assay [2] (first evaluation), `CO[C@H]1C[C@@H]2CC[C@@H](C)[C@@](O)(O2)C(=O)C(=O)N2CCCC[C@H]2C(=O)O[C@H]([C@H](C)C[C@@H]2CC[C@@H](OC(=O)CNC(=O)CCCC[C@@H]3SC[C@@H]4NC(=O)N[C@@H]43)[C@H](OC)C2)CC(=O)[C@H](C)/C=C(\C)[C@@H](O)[C@@H](OC)C(=O)[C@H](C)C[C@H](C)/C=C/C=C/C=C/1C` [Example 3, Rapamycin 42-ester with glycylbiotin] registered an inhibition at 0.0001 µM of 98%, an inhibition at 0.001 µM of 46%, an inhibition at 0.003 µM of 65% and an inhibition at 0.01 µM of 95%. In addition, in assay [2] (first evaluation), at 1 µM the inhibition was 99% and the “ratio compared to rapamycin” value is given as 2.39. Moreover, in assay [2] (first evaluation, read-out: IC50), the IC50 turned out to be 2.8 nM. In assay [2] (second evaluation), this compound registered an inhibition at 0.0001 µM of 94%, an inhibition at 0.001 µM of 16%, an inhibition at 0.003 µM of 51% and an inhibition at 0.01 µM of 88%. In addition, in assay [2] (second evaluation), the inhibition at 1 µM was 96% and the “ratio compared to rapamycin” value is recorded as 0.63. The IC50 in assay [2] (second evaluation, read-out: IC50) is 1.3 nM. Further, the resonance units bound in the assay on Streptavidin was 115 resonance units.

Take `CO[C@H]1C[C@@H]2CC[C@@H](C)[C@@](O)(O2)C(=O)C(=O)N2CCCC[C@H]2C(=O)O[C@H]([C@H](C)C[C@@H]2CC[C@@H](OC(=O)CCC(=O)NCC(=O)Nc3ccc4c(c3)C(=O)OC43c4ccc(O)cc4Oc4cc(O)ccc43)[C@H](OC)C2)CC(=O)[C@H](C)/C=C(\C)[C@@H](O)[C@@H](OC)C(=O)[C@H](C)C[C@H](C)/C=C/C=C/C=C/1C` [rapamycin 42-ester with succinic acid conjugate with 5-glycinylfluoresceinamine]: the polarization is on record as 77 mP in [3] (tracer alone, 10 nM, 100 mM sodium phosphate pH 7.5); 195 mP with FKBP12 (tracer 10 nM, after addition of an excess of FKBP12); 84 mP with RAP-42-OVAF2#1MoAb [4] (tracer 10 nM, excess of RAP-42-OVAF2#1MoAb).

For the compound “secorapamycin 42-ester with succinic acid conjugate with 5-fluoresceinamine [Example A3]”, in [3] (A3 tracer alone), the “background reading (polarization)” value is recorded as 75 mP. Moreover, the polarization reading in the assay with FKBP12 (A3 in presence of FKBP12 (background levels)) is listed as 79 mP; in the assay on RAP-42-OVAF2#1MoAb [4] (A3 in presence of RAP-42-OVAF2#1MoAb) it was 178 mP.

Turning to `CO[C@H]1C[C@@H]2CC[C@@H](C)[C@@](O)(O2)C(=O)C(=O)N2CCCC[C@H]2C(=O)O[C@H]([C@H](C)C[C@@H]2CC[C@@H](O)[C@H](OC)C2)CC(=O)[C@H](C)/C=C(\C)[C@@H](O)[C@@H](OC)C(=O)[C@H](C)C[C@H](C)/C=C/C=C/C=C/1C` [rapamycin], the IC50 in assay [2] (first evaluation) worked out at 6.7 nM; in [2] (second evaluation), 0.8 nM. Moreover, the “% INHIBITION of binding of the compound of Example 3” value is given as 6.6% in assay [5] (rapamycin 0.005 μM), 7.8% in assay [5] (rapamycin 0.05 μM), 30.1% in [5] (rapamycin 0.5 μM) and 67.6% in assay [5] (rapamycin 5 μM). In addition, the OD is on record as 1.866 in [5] (rapamycin 0.005 μM), 1.842 in [5] (rapamycin 0.05 μM), 1.419 in assay [5] (rapamycin 0.5 μM) and “.705” in assay [5] (rapamycin 5 μM). Moreover, the “Optical Density” value is 2.6160 in assay [6] (rapamycin 1.5625 ng/ml); 2.3040 in [6] (rapamycin 3.125 ng/ml); 2.0557 in assay [6] (rapamycin 6.25 ng/ml); 1.3913 in assay [6] (rapamycin 12.5 ng/ml); 0.7473 in assay [6] (rapamycin 25 ng/ml); 0.3573 in assay [6] (rapamycin 50 ng/ml). The “Optical Density” value in assay [6] (rapamycin 100 ng/ml) is on record as 0.2433; in assay [6] (rapamycin 200 ng/ml), 0.2177. The “polarization, competition of the binding between the antibody and A3 tracer” value in the assay on RAP-42-OVAF2#1MoAb [1] (after 38 min) is listed as 121 mP; in the assay with RAP-42-OVAF2#1MoAb [1] (at 3 min) it was 155 mP. Moreover, the “effect in experimental allergic encephalomyelitis model” value in [7] is listed as “effective”. In the assay on adjuvant arthritis model, the “effect in adjuvant arthritis model” value was “effective”. Further, the “inhibition of formation of IgE-like antibodies” value with IgE-like antibodies is listed as “effectively inhibited”.
